Experimental data reported in ChEMBL document CHEMBL4354883, “Design, Synthesis, and Biological Evaluation of HSP90 Inhibitor-SN38 Conjugates for Targeted Drug Accumulation” (J Med Chem, 2020).
Active and inactive are the calls of the source. The calls are words filed in the database; no cut-off is given here.

How the values were obtained:
Heat shock protein HSP90 [1] = target: T1, Heat shock protein HSP90 (Homo sapiens, UniProt P07900+P08238); assay: Inhibition of HSP90 in human A549 cells assessed as upregulation of HSP70 expression at 0.2 to 5 uM after 24 hrs by Western blot analysis; format: cell-based
[2] = target: T2, DNA topoisomerase 1 (Homo sapiens) (UniProt P11387); assay: Inhibition of topoisomerase 1 in human A549 cells assessed as increase in phosphorylated KAP1 expression at 0.2 to 5 uM after 24 hrs by Western blot analysis; format: cell-based
T2 sequence (whole entry): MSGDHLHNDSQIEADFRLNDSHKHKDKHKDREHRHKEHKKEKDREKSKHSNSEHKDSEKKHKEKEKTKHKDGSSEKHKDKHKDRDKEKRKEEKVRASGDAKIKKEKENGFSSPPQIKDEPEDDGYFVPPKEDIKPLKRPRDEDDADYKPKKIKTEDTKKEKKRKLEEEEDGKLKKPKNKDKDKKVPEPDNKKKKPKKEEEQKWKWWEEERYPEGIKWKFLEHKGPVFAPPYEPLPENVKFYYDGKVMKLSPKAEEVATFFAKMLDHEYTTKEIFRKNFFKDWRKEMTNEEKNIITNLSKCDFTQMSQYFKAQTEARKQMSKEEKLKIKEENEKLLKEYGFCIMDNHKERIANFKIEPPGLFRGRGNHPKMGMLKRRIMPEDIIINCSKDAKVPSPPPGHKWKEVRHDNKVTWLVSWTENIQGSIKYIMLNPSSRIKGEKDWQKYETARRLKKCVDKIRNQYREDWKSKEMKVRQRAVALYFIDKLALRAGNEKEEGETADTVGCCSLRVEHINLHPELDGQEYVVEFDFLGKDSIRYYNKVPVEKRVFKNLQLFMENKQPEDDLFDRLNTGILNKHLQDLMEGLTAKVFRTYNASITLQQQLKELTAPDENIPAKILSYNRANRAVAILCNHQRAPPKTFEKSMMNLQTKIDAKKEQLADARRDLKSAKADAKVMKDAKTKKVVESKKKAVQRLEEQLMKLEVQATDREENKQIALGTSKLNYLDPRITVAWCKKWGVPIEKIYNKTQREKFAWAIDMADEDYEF

Heat shock protein HSP90 [3] = target: T1, Heat shock protein HSP90; assay: Inhibition of HSP90 in human HCT116 cells assessed as upregulation of HSP70 expression at 0.2 to 5 uM after 24 hrs by Western blot analysis; format: cell-based
Heat shock protein HSP90 [4] = target: T1, Heat shock protein HSP90; assay: Inhibition of HSP90 in human HCT116 cells assessed as downregulation of AKT protein expression after 24 hrs by Western blot analysis; format: cell-based
[5] = Prodrug release in human A549 cells assessed as increase in 7-ethyl-10-hydroxycamptothecin level at 5 uM after 1 to 12 hrs by LC-MS/MS analysis; format: ADME, cell-based; conditions: a549, 5 µM
[6] = Prodrug release in human A549 cells assessed as increase in 7-ethyl-10-hydroxycamptothecin level at 5 uM after 12 hrs by LC-MS/MS analysis; format: ADME, cell-based; conditions: a549, 12 h
Heat shock protein HSP90 [7] = target: T1, Heat shock protein HSP90; assay: Inhibition of HSP90 in human HCT116 cells assessed as downregulation of Akt expression at 0.008 to 1 uM after 24 hrs by Western blot analysis; format: cell-based
[8] = Prodrug release in tumor of mouse xenografted with human Capan1 cells assessed as increase in 7-ethyl-10-hydroxycamptothecin level at 50 mg/kg, iv after 72 hrs by LC-MS/MS analysis; format: ADME, organism-based, Neoplasm; conditions: in vivo
CAPAN-1 = assay: Antitumor activity against human Capan1 cells xenografted in mouse assessed as increase in apoptosis of tumor cells by measuring increase in green fluorescence at 50 mg/kg, iv for every 2 days measured at 2 hrs post last dose by TUNEL assay; format: functional, organism-based
[9] = Prodrug release in tumor of mouse xenografted with human HCT116 cells assessed as increase in 7-ethyl-10-hydroxycamptothecin level by measuring retention time at 50 mg/kg, iv administered as single dose by LC-MS/MS analysis; format: ADME, organism-based, Neoplasm; conditions: in vivo
Mus musculus = assay: Down regulation of topoisomerase 1 expression in mouse xenografted with human Capan1 cells at 50 mg/kg, iv for every 2 days measured at 2 hrs post last dose by Western blot analysis; format: functional, organism-based
[10] = Toxicity in lung of mouse xenografted with human Capan1 cells assessed as pathological changes at 50 mg/kg, iv for every 2 days measured at 2 hrs post-last dose by H and E staining based analysis; format: organism-based; conditions: in vivo
[11] = Drug uptake in mouse plasma xenografted with human Capan1 cells at 50 mg/kg, iv after 30 mins by LC-MS/MS analysis; format: ADME, organism-based; conditions: in vivo, 0.5 h

Row | Compound | inhibition (Heat shock protein HSP90 [1]) | inhibition [2] | inhibition (Heat shock protein HSP90 [3]) | inhibition (Heat shock protein HSP90 [4]) | Drug metabolism [5] | Drug metabolism [6] | inhibition (Heat shock protein HSP90 [7]) | Drug metabolism [8] | Activity (CAPAN-1) | Retention_time [9] [h] | inhibition (Mus musculus) | Activity [10] | Drug uptake [11]
1 | CCc1c2c(nc3ccc(OC(=O)N4CCC(NC(=O)c5noc(-c6cc(C(C)C)c(O)cc6O)c5-c5ccc(CN6CCOCC6)cc5)CC4)cc13)-c1cc3c(c(=O)n1C2)COC(=O)[C@]3(O)CC | Active | inactive | Active | Dose-dependent effect | – | – | – | – | – | – | – | – | –
2 | CCc1c2c(nc3ccc(O)cc13)-c1cc3c(c(=O)n1C2)COC(=O)[C@@]3(CC)OC(=O)CNC(=O)c1noc(-c2cc(C(C)C)c(O)cc2O)c1-c1ccc(CN2CCOCC2)cc1 | – | – | – | – | Metabolite_Detected | Metabolite_Detected | inactive | Metabolite_Detected | Active | 72 | Active | Non-Toxic | Active
